# Measurements reported in patent US7011834B1, “Immunomodulating dimers” (The Board of Trustees of Leland Stanford Junior University, priority 1987, dated 2006).
# Where no end group is shown, it is not given here.
# How the values were obtained:
# [1] = Half-life of peptide in rats; details: rat, in vivo, preliminary studies
# Protocol: Therefore, we tested whether splenocytes obtained from rats treated with the peptides in vivo could differentiate into CTL ex vivo. In preliminary studies, the half-life of the B7.75-84 peptide was determined to be 2–3 hours in rats.
# [2] = system: CD8+CTL line specific for HLA-A2; experiment: Cytotoxicity assay: inhibition of lysis by established CTL, 51Cr-labeled JY targets; type: cell-based, human; details: for inhibition of lysis by established CTL: HLA-A2 specific CD8+CTL, JY targets, peptides 100 μg/ml, 4 h assay
# Protocol: Cytotoxicity Assay. CTL assays were performed as described using ^51Cr-labeled EBV transformed B cells expressing the appropriate HLA allele as targets [[…] et al., J. Immunol. (1982) 129:2001]. In the present protocol, a CD8+CTL line specific for HLA-A2 was tested in the presence of various peptides for lysis of ^51Cr-labeled JY targets. Peptides were added to a final concentration of 100 μg/ml at the initiation of the 4 h assay. Each determination was the mean of triplicate wells. […] In these determinations, inhibition of cytolysis, as described above, employed the CTL cell line AJY, a long term CD8+CTL line specific for HLA-A2 and the target cell was the B-lymphoblastoid cell line JY (HLA-A2, B7). The cytotoxicity assay was performed as described by Clayberger et al., J. Exp. Med. (1984) 162:1709-1714; and Reiss et al., Proc Natl Acad Sci USA (1980) 77:5432-5436. The peptides were preincubated for 30 min with 1-3×10^3 CTLs before addition of 10^3 51Cr-labeled B-lymphoblastoid target cells. The results are reported for varying concentrations of the peptide with varying ratios of the two cell lines.
# [3] = system: Lew specific CTL precursors in splenocytes; experiment: Limiting dilution assay for CTL precursors in splenocytes after in vivo peptide; set-up: species or system rat; details: PVG rats; for [CTL precursor frequency]^−1: single iv 2 mg, Lew stimulators
# Protocol: The effect of peptides on CTL precursor frequencies in splenocytes was tested as follows. Limiting dilution analysis was carried out essentially as described (Moeller et al. 1993, supra; Skinner and Marbrook. J. Exp. Med. (1976) 143:1562). Briefly, spleens were removed from naive animals or from animals that had received an allograft a minimum of 60 days earlier and then teased into a single cell suspension. Responder cells were plated from 1000 to 40,000 cells per well (24 replicates per concentration) into round bottom microliter wells in RPMI 1640 supplemented with 10% fetal bovine serum (Hyclone, Logan, Utah), 2 mM L-glutamine, 5×10^−5M β-mercaptoethanol, 100 U/ml penicillin, 100 μg/ml streptomycin, 20% supernatant from Concanavalin A activated rat spleen cells, and 50 μM α-methyl mannoside. Then, 5×10^5 irradiated (2000 rads) stimulator cells were added to each well and plates were incubated in a humidified CO2 incubator. After 5 days, aliquots were removed and tested for lysis of ^51Cr-labeled Concanavalin A activated blasts. Aliquots of supernatant were counted in a gamma counter and CTL precursor frequency determined by linear regression (Skinner and Marbrook. 1976, supra). Wells were considered positive if specific release was >10%.
# PVG (RT1^c) or ACI […] rats were treated with a single intravenous injection of saline or 2 mg of A2.75-84, B7.75-84, B2702.75-84, or RT1^a.75-84 peptide. Their spleens were removed on different days after peptide treatment, cultured under limiting dilution conditions for 5 days with irradiated (2000R) splenocytes from Lewis rats; i.e., Lew (RT1^1) stimulator cells, and assayed for lysis of ^51Cr-labeled Lew blasts. CTL precursor frequency was determined by linear regression analysis.
substance,measurement,setting,value
RESLRNLRGY [B7.75–84],half-life,[1],2 to 3 h
B2702.75–84T^80: SEQ ID NO:25; threonine replaces isoleucine at position 80: RENLRTALRY (listed as Homo sapiens),inhibition of lysis by established CTL,[2],did not inhibit lysis
"RENLRILLRY (listed as Homo sapiens) [B2702.75–84L^81, leucine replaces alanine at position 81]",inhibition of lysis by established CTL,[2],inhibited lysis comparably to 02.75-84
B7.84–75/75–84: SEQ ID NO:27 (also NO:35); Table 1 sequence read from dashes: YGRLNRLSERRESLRNLRGY (listed as Homo sapiens),inhibition of lysis by established CTL,[2],did not inhibit CTL-mediated lysis at any concentration tested
"REDLRIALRY (listed as Homo sapiens) [B2702.75–84D^77, aspartic replaces asparagine at position 77]",inhibition of lysis by established CTL,[2],did not inhibit lysis
WDRETQICKAKAQTDRENLRIALRY [B2702.60–84],"potency relative to B2702.75-84, based on concentration required to achieve 50% inhibition of cytotoxicity",[2],approximately 5 fold
"B2702.70–84: SEQ ID NO:33, the 15-mer; Table 1 sequence read from dashes: KAQTDRENLRIALRY (listed as Homo sapiens)",inhibition of lysis by established CTL,[2],comparably effective in inhibiting cytolysis to B2072.75-84
"RVDLRTLRGY (listed as Homo sapiens) [RT1A.75–84, peptide corresponding to the same residues from a rat MHC class I molecule, reference compound]",[CTL precursor frequency]^−1,[3]; 0 days after peptide injection,"56,583"
same,[CTL precursor frequency]^−1,[3]; 1 day after peptide injection,"54,631"
same,[CTL precursor frequency]^−1,[3]; 7 days after peptide injection,"55,647"
same,[CTL precursor frequency]^−1,[3]; 10 days after peptide injection,"56,583"
same,precursor frequency of Lew specific cells in splenocytes (1 in),[3]; independent of the day on which the spleen was removed,"~55,000"
